# US11491460B2, “Porous cyclodextrin polymeric materials and methods of making and using same” (Cornell University, priority 2015, dated 2022)
# Counter-ions that a name gives are not always drawn.
# What was measured:
# [1] = Micropollutant adsorption kinetics experiments on P-CDP; details: P-CDP 10 mg/L, MP 1 μg/L
# [2] = Micropollutant adsorption kinetics experiments on CCAC; details: CCAC 10 mg/L, MP 1 μg/L
# [3] = Batch adsorption kinetic studies of organic pollutants on P-CDP; details: estimated from the equilibrium efficiency value from the batch kinetic studies
# [4] = Langmuir parameters of pollutant adsorption on P-CDP (Table 6); type: binding
# Source text: H. Thermodynamic studies of adsorption.
# K (mol^−1) is the equilibrium constant.
# [5] = system: fish populations; details: concentrations as low as; cited from earlier work
# [6] = cited from earlier work; for Cs, solubility in water: experimental values
# [7] = 23° C., estimated at t=30 minutes
structure (smiles),measurement,setting,value
"O=C(O)COc1ccc(Cl)cc1Cl [2,4-D]",removal by P-CDP (in words),[1],hardly removed
same,kobs,[1]; [7],72.9 g/mg/min
same,removal by CCAC (in words),[2],removed fairly well
same,kobs,[2]; [7],11.0 g/mg/min
"Oc1ccc2ccccc2c1 [2-NO, 2-naphthol]","K, equilibrium constant",[3],"~30,000^c Mol^−1"
"CC(C)(c1ccc(O)cc1)c1ccc(O)cc1 [BPA, Bisphenol A]","BPA/β-CD molar ratio at qmax,e",[4],0.9
same,"K, equilibrium constant",[4]; Langmuir,"56,500 Mol^−1"
same,"qmax,e, maximum adsorption capacity of pollutant on 1 g P-CDP at equilibrium",[4]; Langmuir,88.5 mg/g
"O=S(=O)(c1ccc(O)cc1)c1ccc(O)cc1 [BPS, bisphenol S]","K, equilibrium constant",[3],"~17,000^c Mol^−1"
"Oc1ccc(Cl)cc1Cl [DCP, 2,4-dichlorophenol]","K, equilibrium constant",[3],"~17,000^c Mol^−1"
CC(C)(C)NCC(O)c1ccc(O)c(CO)c1 (stereo not shown) [albuterol],removal by P-CDP (in words),[1],removed well
same,removal by CCAC (in words),[2],not effectively removed
CC(N)Cc1ccccc1 (stereo not shown) [amphetamine],removal by P-CDP (in words),[1],removed well
same,removal by CCAC (in words),[2],not effectively removed
CC(C)NCC(O)COc1ccc(CC(=O)O)cc1 (stereo not shown) [atenolol acid],removal by P-CDP (in words),[1],removed well
same,removal by CCAC (in words),[2],not effectively removed
CC(C)NCC(O)COc1ccc(CC(N)=O)cc1 (stereo not shown) [atenolol],removal by P-CDP (in words),[1],removed well
same,removal by CCAC (in words),[2],not effectively removed
COc1ccc2c3c1O[C@H]1[C@@H](O)C=C[C@H]4[C@@H](C2)N(C)CC[C@@]341 [codeine],removal by P-CDP (in words),[1],removed well
same,removal by CCAC (in words),[2],not effectively removed
C#C[C@]1(O)CC[C@H]2[C@@H]3CCc4cc(O)ccc4[C@H]3CC[C@@]21C [ethinyl estradiol],concentration that has caused the collapse of fish populations,[5],5 pg/mL
same,pKa,[6],10.4
same,"Cs, solubility in water",[6],2 µg/mL
COc1ccc2c3c1O[C@H]1C(=O)CC[C@H]4[C@@H](C2)N(C)CC[C@]314 [hydrocodone],removal by P-CDP (in words),[1],removed well
same,removal by CCAC (in words),[2],not effectively removed
CCc1cccc(C)c1N(C(=O)CCl)C(C)COC (stereo not shown) [metolachlor],"K, equilibrium constant",[3],"~35,000^c Mol^−1"
CN1CC[C@]23c4c5ccc(O)c4O[C@H]2[C@@H](O)C=C[C@H]3[C@H]1C5 [morphine],removal by P-CDP (in words),[1],removed well
same,removal by CCAC (in words),[2],not effectively removed
CC(C)NCC(O)COc1cccc2ccccc12 (stereo not shown) [propranolol hydrochloride],"K, equilibrium constant",[3],"~72,000^c Mol^−1"
CC(C)NCC(O)COc1cccc2ccccc12 (stereo not shown) [propranolol],"Cs, solubility in water",[6],50 µg/mL
COc1cccc(C2(O)CCCCC2CN(C)C)c1 (stereo not shown) [tramadol],removal by P-CDP (in words),[1],removed well
same,removal by CCAC (in words),[2],not effectively removed
COc1ccc(C(CN(C)C)C2(O)CCCCC2)cc1 (stereo not shown) [venlafaxine],removal by P-CDP (in words),[1],removed well
same,removal by CCAC (in words),[2],not effectively removed
